Reference: ChEMBL document CHEMBL4828766 (J Med Chem, 2021)
The source made the active and inactive calls. The rule behind the calls is not given here. Square brackets hold non-standard residues; d marks the D form. Peptide text beside a SMILES is read from it. Phe(4-I) = N[C@@H](Cc1ccc(I)cc1)C(=O)O; dPhe(4-I) = N[C@H](Cc1ccc(I)cc1)C(=O)O; 2Nal = N[C@@H](Cc1ccc2ccccc2c1)C(=O)O; d2Nal = N[C@H](Cc1ccc2ccccc2c1)C(=O)O

Key:
[1] = target: Melanocyte-stimulating hormone receptor (Mus musculus) (UniProt Q01727); assay: Agonist activity at mouse MC1R expressed in HEK293 cells assessed as induction of cAMP level at 100 uM incubated for 2 hr by alphaScreen assay relative to NDP-MSH; format: functional, cell-based
Chain of Melanocyte-stimulating hormone receptor (Mus musculus) (Q01727 whole entry, looked up): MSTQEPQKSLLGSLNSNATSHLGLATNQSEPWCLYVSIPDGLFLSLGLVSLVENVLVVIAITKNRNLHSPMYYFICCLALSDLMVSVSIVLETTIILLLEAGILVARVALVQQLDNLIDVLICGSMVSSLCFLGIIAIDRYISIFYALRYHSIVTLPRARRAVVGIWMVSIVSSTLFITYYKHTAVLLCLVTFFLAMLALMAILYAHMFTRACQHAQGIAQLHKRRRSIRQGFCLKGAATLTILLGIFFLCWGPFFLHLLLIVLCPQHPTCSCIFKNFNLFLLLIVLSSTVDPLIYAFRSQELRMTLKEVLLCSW

[2] = target: T1, Melanocortin receptor 3 (Mus musculus, UniProt P33033); assay: Agonist activity at mouse MC3R expressed in HEK293 cells assessed as induction of cAMP level incubated for 2 hr by alphaScreen assay; format: functional, cell-based
T1 sequence (P33033 whole entry): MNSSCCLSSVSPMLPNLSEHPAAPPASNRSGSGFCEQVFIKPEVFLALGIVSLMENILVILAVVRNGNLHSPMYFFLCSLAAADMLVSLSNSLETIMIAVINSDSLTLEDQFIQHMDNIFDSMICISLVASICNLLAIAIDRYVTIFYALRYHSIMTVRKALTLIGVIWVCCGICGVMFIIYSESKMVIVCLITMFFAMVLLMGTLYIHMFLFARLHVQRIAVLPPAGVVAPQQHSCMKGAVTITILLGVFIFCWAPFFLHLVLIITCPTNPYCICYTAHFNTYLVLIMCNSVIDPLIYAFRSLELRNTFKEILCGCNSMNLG

[3] = target: Melanocortin receptor 5 (Mus musculus) (UniProt P41149); assay: Agonist activity at mouse MC5R expressed in HEK293 cells assessed as induction of cAMP level at 100 uM incubated for 2 hr by alphaScreen assay relative to control; format: functional, cell-based
Chain of Melanocortin receptor 5 (Mus musculus) (P41149 whole entry): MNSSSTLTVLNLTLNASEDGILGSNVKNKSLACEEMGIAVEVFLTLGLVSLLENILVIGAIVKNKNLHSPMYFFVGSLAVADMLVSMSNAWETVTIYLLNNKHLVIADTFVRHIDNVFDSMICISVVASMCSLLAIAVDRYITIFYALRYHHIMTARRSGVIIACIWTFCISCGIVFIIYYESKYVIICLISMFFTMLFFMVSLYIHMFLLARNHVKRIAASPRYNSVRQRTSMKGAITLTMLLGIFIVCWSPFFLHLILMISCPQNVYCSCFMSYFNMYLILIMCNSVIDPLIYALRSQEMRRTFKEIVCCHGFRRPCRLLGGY

[4] = target: T1, Melanocortin receptor 3; assay: (§1) Antagonist activity at mouse melanocortin receptor 3 expressed in HEK293 cells assessed as inhibition of NDP-MSH-induced cAMP accumulation incubated for 2 hrs by cAMP Alpha-screen assay based Schild analysis; format: functional, cell-based; settings: for Kb: read-out: pA2 (converted)
[5] = target: T2, Melanocortin receptor 4 (Mus musculus, UniProt P56450); assay: Antagonist activity at mouse melanocortin receptor 4 expressed in HEK293 cells assessed as inhibition of NDP-MSH-induced cAMP accumulation incubated for 2 hrs by cAMP Alpha-screen assay based Schild analysis; format: functional, cell-based; settings: for Kb: read-out: pA2 (converted)
T2 sequence (P56450 whole entry): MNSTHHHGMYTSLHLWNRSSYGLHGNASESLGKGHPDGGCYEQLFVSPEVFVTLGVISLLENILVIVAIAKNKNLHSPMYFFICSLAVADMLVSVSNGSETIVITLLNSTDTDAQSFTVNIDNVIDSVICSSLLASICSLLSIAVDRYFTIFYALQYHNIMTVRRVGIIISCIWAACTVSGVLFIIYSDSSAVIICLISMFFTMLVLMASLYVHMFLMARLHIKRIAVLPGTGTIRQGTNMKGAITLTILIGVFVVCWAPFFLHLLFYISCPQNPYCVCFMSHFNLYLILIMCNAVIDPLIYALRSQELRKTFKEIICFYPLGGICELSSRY

[6] = target: T2, Melanocortin receptor 4; assay: Agonist activity at mouse MC4R expressed in HEK293 cells assessed as induction of cAMP level incubated for 2 hr by alphaScreen assay; format: functional, cell-based
[7] = target: Melanocortin receptor 3 (Mus musculus) (UniProt P33033); assay: Agonist activity at mouse MC3R expressed in HEK293 cells assessed as induction of cAMP level at 100 uM incubated for 2 hr by alphaScreen assay relative to control; format: functional, cell-based
Chain of Melanocortin receptor 3 (Mus musculus) (P33033 whole entry): as the sequence (P33033 whole entry) above

[8] = target: Melanocortin receptor 4 (Mus musculus) (UniProt P56450); assay: Agonist activity at mouse MC4R expressed in HEK293 cells assessed as induction of cAMP level at 100 uM incubated for 2 hr by alphaScreen assay relative to control; format: functional, cell-based
Target sequence in this assay (P56450 whole entry): as the sequence (P56450 whole entry) above

[9] = target: Melanocortin receptor 4 (Homo sapiens) (UniProt P32245); assay: Inhibition of [125 I][Nle 4,D -Phe 7]alpha-MSH binding to human MC4R expressed in African green monkey COS-1 cell membrane by gamma-counter method; format: cell membranes
Chain of Melanocortin receptor 4 (Homo sapiens) (P32245 whole entry): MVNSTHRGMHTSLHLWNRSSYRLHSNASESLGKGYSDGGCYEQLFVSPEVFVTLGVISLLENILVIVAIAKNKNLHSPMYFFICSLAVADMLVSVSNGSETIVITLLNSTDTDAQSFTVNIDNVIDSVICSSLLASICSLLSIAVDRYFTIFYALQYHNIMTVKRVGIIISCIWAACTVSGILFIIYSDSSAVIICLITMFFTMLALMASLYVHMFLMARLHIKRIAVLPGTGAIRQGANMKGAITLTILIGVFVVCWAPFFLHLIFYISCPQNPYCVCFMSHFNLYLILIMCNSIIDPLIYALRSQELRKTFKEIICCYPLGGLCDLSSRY

[10] = target: Melanocortin receptor 3 (Homo sapiens) (UniProt P41968); assay: Inhibition of [125 I][Nle 4,D -Phe 7]alpha-MSH binding to human MC3R expressed in African green monkey COS-1 cell membrane by gamma-counter method; format: cell membranes
Chain of Melanocortin receptor 3 (Homo sapiens) (P41968 whole entry): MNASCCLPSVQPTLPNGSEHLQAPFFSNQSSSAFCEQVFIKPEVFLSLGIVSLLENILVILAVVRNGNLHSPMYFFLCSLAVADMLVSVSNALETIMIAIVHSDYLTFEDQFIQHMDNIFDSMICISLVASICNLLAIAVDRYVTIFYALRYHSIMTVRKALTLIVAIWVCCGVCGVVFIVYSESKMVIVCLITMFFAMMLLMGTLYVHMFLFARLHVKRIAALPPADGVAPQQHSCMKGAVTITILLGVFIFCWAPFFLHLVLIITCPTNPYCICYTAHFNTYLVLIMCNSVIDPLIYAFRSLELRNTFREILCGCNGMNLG

[11] = target: Melanocortin receptor 5 (Mus musculus, UniProt P41149); assay: Agonist activity at mouse MC5R expressed in HEK293 cells assessed as induction of cAMP level at 100 uM incubated for 2 hr by alphaScreen assay; format: functional, cell-based
Chain of Melanocortin receptor 5 (P41149 whole entry): as the sequence (P41149 whole entry) above

[12] = target: Melanocortin receptor 3 (Mus musculus) (UniProt P33033); assay: as §1; format: functional, cell-based
[13] = target: Melanocortin receptor 4 (Mus musculus) (UniProt P56450); assay: Antagonist activity at mouse melanocortin receptor 4 expressed in HEK293 cells assessed as inhibition of NDP-MSH-induced cAMP accumulation incubated for 2 hrs by cAMP Alpha-screen assay based Schild analysis
Target sequence in this assay (P56450 whole entry, looked up): as the sequence (P56450 whole entry) above

[14] = target: T3, Melanocyte-stimulating hormone receptor (Mus musculus, UniProt Q01727); assay: Agonist activity at mouse MC1R expressed in HEK293 cells assessed as induction of cAMP level at 100 uM incubated for 2 hr by alphaScreen assay; format: functional, cell-based
T3 sequence (Q01727 whole entry): as the sequence (Q01727 whole entry, looked up) above

[15] = target: T3, Melanocyte-stimulating hormone receptor; assay: Partial agonist activity at mouse MC1R expressed in HEK293 cells assessed as induction of cAMP level incubated for 2 hr by alphaScreen assay; format: functional, cell-based
[16] = target: Melanocyte-stimulating hormone receptor (Mus musculus) (UniProt Q01727); assay: Partial agonist activity at mouse MC1R expressed in HEK293 cells assessed as induction of cAMP level at 100 uM incubated for 2 hr by alphaScreen assay relative to control; format: functional, cell-based

SMILES | EC50 [2] [nM] | Kb [4] [nM] | Kb [5] [nM] | EC50 [6] [nM] | Activity [8] [%] | EC50 [11] [nM] | other results
CC(=O)N[C@H](Cc1ccc2ccccc2c1)C(=O)N[C@H](Cc1ccc2ccccc2c1)C(=O)N[C@@H](Cc1ccc2ccccc2c1)C(=O)N[C@@H](CCCNC(=N)N)C(N)=O | > 100000 | > 3160 | > 3160 | > 100000 | – | – | Activity ([1]; filed as agonist): 55%; Activity ([3]; filed as agonist): 40%
CC(=O)N[C@H](Cc1ccc2ccccc2c1)C(=O)N[C@H](Cc1ccc2ccccc2c1)C(=O)N[C@H](Cc1ccc2ccccc2c1)C(=O)N[C@@H](CCCNC(=N)N)C(N)=O | – | > 3160 | > 3160 | – | 25 | – | Activity [1]: 30%; Activity [7]: 35%
CC(=O)N[C@@H](Cc1ccc2ccccc2c1)C(=O)N[C@@H](CCCNC(=N)N)C(=O)N[C@@H](Cc1ccc2ccccc2c1)C(N)=O | – | – | – | – | – | – | Activity [9]: 11.6 nM; Activity [10]: 1120 nM
CC(=O)N[C@@H](Cc1ccc(I)cc1)C(=O)N[C@@H](Cc1ccc2ccccc2c1)C(=O)N[C@@H](Cc1ccc(I)cc1)C(=O)N[C@@H](CCCNC(=N)N)C(N)=O (Ac-[Phe(4-I)][2Nal][Phe(4-I)]R-NH2) | > 100000 | – | – | > 100000 | – | > 100000 | Activity ([1]; filed as agonist): 60%; pA2 [12]: inactive; pA2 [13]: inactive
CC(=O)N[C@H](Cc1ccc2ccccc2c1)C(=O)N[C@@H](CCCNC(=N)N)C(=O)N[C@@H](Cc1c[nH]c2ccccc12)C(=O)N[C@H](Cc1ccc2ccccc2c1)C(N)=O (Ac-[d2Nal]RW[d2Nal]-NH2) | – | 2000 | 100 | – | 30 | > 100000 | Activity ([7]; filed as agonist): 40%
CC(=O)N[C@H](Cc1ccc2ccccc2c1)C(=O)N[C@@H](CCCNC(=N)N)C(=O)N[C@@H](Cc1ccc2ccccc2c1)C(=O)N[C@@H](CCCNC(=N)N)C(N)=O (Ac-[d2Nal]R[2Nal]R-NH2) | > 100000 | 100 | 1.58 | – | 30 | > 100000 | EC50 [14]: > 100000 nM
CC(=O)N[C@H](Cc1ccc2ccccc2c1)C(=O)N[C@@H](CCCNC(=N)N)C(=O)N[C@@H](Cc1ccc2ccccc2c1)C(=O)N[C@H](Cc1ccc2ccccc2c1)C(N)=O (Ac-[d2Nal]R[2Nal][d2Nal]-NH2) | – | > 3160 | 200 | – | 30 | – | Activity [7]: 30%; Activity [3]: 25%
CC(=O)N[C@H](Cc1ccc2ccccc2c1)C(=O)N[C@@H](CCCNC(=N)N)C(=O)N[C@@H](Cc1ccc2ccccc2c1)C(=O)N[C@H](CCCCN)C(N)=O (Ac-[d2Nal]R[2Nal][dK]-NH2) | > 100000 | 631 | 15.8 | > 100000 | – | > 100000 | EC50 [15]: 3300 nM; Activity ([16]; filed as partial agonist): 50%
CC(=O)N[C@H](Cc1ccc2ccccc2c1)C(=O)N[C@@H](CCCNC(=N)N)C(=O)N[C@H](Cc1ccc2ccccc2c1)C(=O)N[C@@H](CCCNC(=N)N)C(N)=O (Ac-[d2Nal]R[d2Nal]R-NH2) | > 100000 | 794 | 5.01 | > 100000 | – | > 100000 | EC50 [15]: 1000 nM; Activity ([16]; filed as partial agonist): 60%
CC(=O)N[C@H](Cc1ccc2ccccc2c1)C(=O)N[C@@H](CCCNC(=N)N)C(=O)N[C@H](Cc1ccc2ccccc2c1)C(=O)N[C@H](Cc1ccc2ccccc2c1)C(N)=O (Ac-[d2Nal]R[d2Nal][d2Nal]-NH2) | – | 2000 | 501 | – | – | – | EC50 [15]: 5000 nM; Activity ([7]; filed as agonist): 50%; Activity [3]: 20%; Activity ([8]; filed as agonist): 45%; Activity ([16]; filed as partial agonist): 85%
CC(=O)N[C@H](Cc1ccc2ccccc2c1)C(=O)N[C@@H](CCCNC(=N)N)C(=O)N[C@H](Cc1ccc2ccccc2c1)C(=O)N[C@H](CCCCN)C(N)=O (Ac-[d2Nal]R[d2Nal][dK]-NH2) | > 100000 | 1000 | 6.31 | > 100000 | – | > 100000 | EC50 [15]: 6000 nM; Activity [16]: 30%
CC(=O)N[C@H](Cc1ccc2ccccc2c1)C(=O)N[C@@H](CCCNC(=N)N)C(=O)N[C@H](Cc1ccc(I)cc1)C(=O)N[C@H](Cc1ccc2ccccc2c1)C(N)=O (Ac-[d2Nal]R[dPhe(4-I)][d2Nal]-NH2) | – | – | – | – | 30 | – | Activity ([3]; filed as agonist): 40%
CC(=O)N[C@H](Cc1ccc2ccccc2c1)C(=O)N[C@H](Cc1ccc2ccccc2c1)C(=O)N[C@@H](Cc1c[nH]c2ccccc12)C(=O)N[C@@H](CCCNC(=N)N)C(N)=O (Ac-[d2Nal][d2Nal]WR-NH2) | – | > 3160 | > 3160 | – | – | – | Activity ([1]; filed as agonist): 45%; Activity [7]: 35%; Activity ([3]; filed as agonist): 45%; Activity ([8]; filed as agonist): 60%
CC(=O)N[C@H](Cc1ccc(I)cc1)C(=O)N[C@@H](CCCNC(=N)N)C(=O)N[C@@H](Cc1c[nH]c2ccccc12)C(=O)N[C@@H](CCCNC(=N)N)C(N)=O (Ac-[dPhe(4-I)]RWR-NH2) | – | 39.8 | 2 | > 100000 | – | > 100000 | EC50 [15]: 7900 nM; Activity [7]: 25%; Ki [4]: 40 nM; Ki [5]: 2 nM; Activity ([16]; filed as partial agonist): 50%
CC(=O)N[C@H](Cc1ccc(I)cc1)C(=O)N[C@@H](CCCNC(=N)N)C(=O)N[C@@H](Cc1c[nH]c2ccccc12)C(=O)N[C@H](Cc1ccc2ccccc2c1)C(N)=O (Ac-[dPhe(4-I)]RW[d2Nal]-NH2) | – | 1000 | 25.1 | – | 35 | > 100000 | Activity ([1]; filed as agonist): 45%; Activity [7]: 25%; Ki [4]: 1000 nM; Ki [5]: 25 nM
CC(=O)N[C@H](Cc1ccc(I)cc1)C(=O)N[C@@H](CCCNC(=N)N)C(=O)N[C@H](Cc1ccc2ccccc2c1)C(=O)N[C@H](Cc1ccc2ccccc2c1)C(N)=O (Ac-[dPhe(4-I)]R[d2Nal][d2Nal]-NH2) | – | 794 | 200 | – | – | – | Activity ([1]; filed as agonist): 80%; Activity ([7]; filed as agonist): 45%; Activity [3]: 20%; Ki [4]: 790 nM; Ki [5]: 200 nM; Activity ([8]; filed as agonist): 45%
CC(=O)N[C@H](Cc1ccc(I)cc1)C(=O)N[C@@H](CCCNC(=N)N)C(=O)N[C@H](Cc1ccc2ccccc2c1)C(=O)N[C@H](CCCCN)C(N)=O (Ac-[dPhe(4-I)]R[d2Nal][dK]-NH2) | – | – | – | – | – | – | Activity [16]: 30%
CC(=O)N[C@H](Cc1ccc(I)cc1)C(=O)N[C@@H](CCCNC(=N)N)C(=O)N[C@H](Cc1ccc(I)cc1)C(=O)N[C@H](Cc1ccc2ccccc2c1)C(N)=O (Ac-[dPhe(4-I)]R[dPhe(4-I)][d2Nal]-NH2) | – | 501 | 251 | – | – | – | EC50 [14]: 1100 nM; Activity ([7]; filed as agonist): 40%; Activity ([3]; filed as agonist): 65%; Ki [4]: 500 nM; Ki [5]: 250 nM; Activity ([8]; filed as agonist): 40%
